What follows are compounds tested against T1, human A2a receptor (Homo sapiens, UniProt P29274) (assay: A2a competition binding assay, Scintillation Proximity technology). Settings: membranes from HEK293 cells expressing human A2a receptor; Ki by Cheng-Prusoff equation.
T1 construct: purchased Perkin-Elmer RBHA2AM400UA; host or cells: HEK293 cells (membranes)
Protocol: Binding affinities of compounds of the invention for the human A2a receptor were determined in a competition binding assay using Scintillation Proximity technology. Thus, […] from HEK293 cells expressing the human A2a receptor were incubated with a compound of the invention at concentrations ranging from 3000 nM to 0.15 nM in a reaction mixture containing also 0.5 nM of a tritiated form of 5-amino-7-[2-phenethyl]-2-(furan-2-yl)-7H-pyrazolo[4,3-e][1,2,4]triazolo[1,5-c]pyrimidine (the tritiated compound) and 100 μg of wheat germ agglutin-coated yttrium silicate SPA beads for one hour at room temperature with agitation. The beads were then allowed to settle to the bottom of the wells for 1 hr, after which the membrane-associated radioactivity was determined by scintillation counting in a TopCount microplate reader. Ki values were determined using the Cheng-Prusoff equation.
HEK293 cells expressing the human, rat, dog or monkey adenosine 2a receptor (Purchased from Perkin-Elmer # RBHA2AM400UA).
The Tritiated compound was prepared in-house by MRL Radiochemistry according to published methods.
Wheat germ agglutinin-coated yttrium silicate SPA beads (GE Healthcare #RPNQ0023). Dilute to 25 mg/ml in assay buffer.
Assay Buffer was prepared in house: Dulbecco's calcium and magnesium free phosphate buffered saline+10 mM MgCl2
Adenosine deaminase from calf intestine, 10 mg/2 ml (Roche #10 102 105 001).
A2a antagonist standard (9-chloro-1-(2-furanyl)-[1,2,4]triazolo1,5-c]quinazolin-5-amine from Tocris Bioscience)
Make eight 1:3 serial dilutions in 100% DMSO from a 3 mM compound stock
Transfer 50 nl of compound into a 384-well OptiPlate (Perkin Elmer).
Typically, final concentrations of compound used in the assay ranged from 3000 nM to 0.152 nM.
Dilute a solution of the Tritiated compound to 1.25 nM in assay buffer. This is a 2.5× solution. The final concentration in the assay is 0.5 nM. Calculate the concentration by counting two 5 μl aliquots.
Use 0.25 ug of membrane/well. Dilute membranes to 9.7 μg/ml in assay buffer. Treat with 20 ug/ml adenosine deaminase (ADA) for 15 minutes at room temperature to degrade endogenous adenosine.
Use 100 μg/well wheat germ agglutinin-coated yttrium silicate SPA beads.
Mix ADA-treated membranes and SPA beads together for 30 min prior to assay.
To the Perkin-Elmer Optiplate-384 containing the compound titration add 20 μl of 2.5× solution of the Tritiated compound and 30 μl of the membrane-bead mixture. Incubate for one hour at room temperature with agitation.
Include total binding (assay buffer+1% DMSO) and non-specific binding (CGS15943, 1 μM) wells.
Allow the beads to settle for one hour.
A curve fitting program (i.e., Prism, Activity Base, Chemcart) is used to determine the EC50. The Ki value is calculated using the Cheng-Prusoff equation. Ki=EC50/(1+(radioligand concentration/Kd))

T1 sequence (P29274 whole entry): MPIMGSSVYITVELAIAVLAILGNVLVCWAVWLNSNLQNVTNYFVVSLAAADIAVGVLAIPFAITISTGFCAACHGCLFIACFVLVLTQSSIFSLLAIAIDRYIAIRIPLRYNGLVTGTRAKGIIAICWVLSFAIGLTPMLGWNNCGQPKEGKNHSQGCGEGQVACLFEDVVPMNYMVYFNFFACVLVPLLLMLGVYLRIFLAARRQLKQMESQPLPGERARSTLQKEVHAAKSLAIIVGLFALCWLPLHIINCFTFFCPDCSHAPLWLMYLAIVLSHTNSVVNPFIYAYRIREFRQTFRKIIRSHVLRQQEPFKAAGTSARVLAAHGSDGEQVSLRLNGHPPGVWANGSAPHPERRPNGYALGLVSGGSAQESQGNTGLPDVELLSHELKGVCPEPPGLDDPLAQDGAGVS

| Ki [nM] | Structure (SMILES) |
| --- | --- |
| 0.365 | Cc1nc(C(=O)NCc2ncccc2F)c(N)nc1-c1ncco1 [Ex-20, 3-amino-N-[(3-fluoropyridin-2-yl)methyl]-6-methyl-5-(1,3-oxazol-2-yl)pyrazine-2-carboxamide] |
| 0.934 | Cc1nc(C(=O)NCc2cccc(N(C)C)n2)c(N)nc1-c1ncco1 [Ex-21, 3-amino-N-{[6-(dimethylamino)pyridin-2-yl]methyl}-6-methyl-5-(1,3-oxazol-2-yl)pyrazine-2-carboxamide] |
| 0.919 | COc1cccc(CNC(=O)c2nc(C)c(-c3ncco3)nc2N)n1 [Ex-22, 3-amino-N-[(6-methoxypyridin-2-yl)methyl]-6-methyl-5-(1,3-oxazol-2-yl)pyrazine-2-carboxamide] |
| 0.293 | Cc1nc(C(=O)NCc2cccc3ccncc23)c(N)nc1-c1ncco1 [Ex-23, 3-amino-N-(isoquinolin-8-ylmethyl)-6-methyl-5-(1,3-oxazol-2-yl)pyrazine-2-carboxamide] |
| 78.5 | Cc1nc(C(=O)N2CCCc3ccccc32)c(N)nc1-c1ncco1 [Ex-24] |
| 16.2 | Cc1nc(C(=O)NCCc2ccccn2)c(N)nc1-c1ncco1 [Ex-25, 3-amino-6-methyl-5-(1,3-oxazol-2-yl)-N-(2-pyridin-2-ylethyl)pyrazine-2-carboxamide] |
| 1.71 | Cc1nc(C(=O)NCc2ccn(C)n2)c(N)nc1-c1ncco1 [Ex-26, 3-amino-6-methyl-N-[(1-methyl-1H-pyrazol-3-yl)methyl]-5-(1,3-oxazol-2-yl)pyrazine-2-carboxamide] |
| 120 | Cc1nc(C(=O)NCc2ccncc2)c(N)nc1-c1ncco1 [Ex-27, 3-amino-6-methyl-5-(1,3-oxazol-2-yl)-N-(pyridin-4-ylmethyl)pyrazine-2-carboxamide] |
| 14.5 | Cc1nc(C(=O)NCc2cccnc2)c(N)nc1-c1ncco1 [Ex-28, 3-amino-6-methyl-5-(1,3-oxazol-2-yl)-N-(pyridin-3-ylmethyl)pyrazine-2-carboxamide] |
| 0.336 | Cc1nc(C(=O)NCc2cc3ccccc3cn2)c(N)nc1-c1ncco1 [Ex-29, 3-amino-N-(isoquinolin-3-ylmethyl)-6-methyl-5-(1,3-oxazol-2-yl)pyrazine-2-carboxamide] |
| 0.314 | Cc1nc(C(=O)NCc2ccccc2F)c(N)nc1-c1ncco1 [Ex-30, 3-amino-N-(2-fluorobenzyl)-6-methyl-5-(1,3-oxazol-2-yl)pyrazine-2-carboxamide] |
| 0.737 | Cc1nc(C(=O)NCc2cccc(F)c2)c(N)nc1-c1ncco1 [Ex-31, 3-amino-N-(3-fluorobenzyl)-6-methyl-5-(1,3-oxazol-2-yl)pyrazine-2-carboxamide] |
| 1.5 | Cc1nc(C(=O)NCc2ccc(F)cc2)c(N)nc1-c1ncco1 [Ex-32, 3-amino-N-(4-fluorobenzyl)-6-methyl-5-(1,3-oxazol-2-yl)pyrazine-2-carboxamide] |
| 2.8 | Cc1nc(C(=O)NCc2ccc3ccccc3n2)c(N)nc1-c1ncco1 [Ex-33, 3-amino-6-methyl-5-(1,3-oxazol-2-yl)-N-(quinolin-2-ylmethyl)pyrazine-2-carboxamide] |
| 847 | Cc1nc(C(=O)N2CCCC(F)(F)C2)c(N)nc1-c1ncco1 [Ex-34, 3-[(3,3-difluoropiperidin-1-yl)carbonyl]-5-methyl-6-(1,3-oxazol-2-yl)pyrazin-2-amine] |
| 0.396 | Cc1cc(C)nc(CNC(=O)c2nc(C)c(-c3ncco3)nc2N)c1 [Ex-35, 3-amino-N-[(4,6-dimethylpyridin-2-yl)methyl]-6-methyl-5-(1,3-oxazol-2-yl)pyrazine-2-carboxamide] |

| Ki [nM] | Structure (SMILES) |
| --- | --- |
| 0.464 | Cc1nc(C(=O)NCc2cccc3c2ncn3CC(F)F)c(N)nc1-c1ncco1 [Ex-36, 3-amino-N-{[1-(2,2-difluoroethyl)-1H-benzimidazol-4-yl]methyl}-6-methyl-5-(1,3-oxazol-2-yl)pyrazine-2-carboxamide] |
| 7.77 | Cc1nc(C(=O)NCc2nc(C)c(C)n2C)c(N)nc1-c1ncco1 [Ex-37, 3-amino-6-methyl-5-(1,3-oxazol-2-yl)-N-[(1,4,5-trimethyl-1H-imidazol-2-yl)methyl]pyrazine-2-carboxamide] |
| 2.27 | Cc1nc(C(=O)NCc2ncn(C(C)C)c2C)c(N)nc1-c1ncco1 [Ex-38, 3-amino-6-methyl-N-{[5-methyl-1-(1-methylethyl)-1H-imidazol-4-yl]methyl}-5-(1,3-oxazol-2-yl)pyrazine-2-carboxamide] |
| 33.9 | Cc1nc(C(=O)NCc2cnco2)c(N)nc1-c1ncco1 [Ex-39, 3-amino-6-methyl-5-(1,3-oxazol-2-yl)-N-(1,3-oxazol-5-ylmethyl)pyrazine-2-carboxamide] |
| 14.6 | Cc1nc(C(=O)NCc2ccns2)c(N)nc1-c1ncco1 [Ex-40, 3-amino-N-(isothiazol-5-ylmethyl)-6-methyl-5-(1,3-oxazol-2-yl)pyrazine-2-carboxamide] |
| 0.593 | Cc1ccc(C)c(CNC(=O)c2nc(C)c(-c3ncco3)nc2N)n1 [Ex-41, 3-amino-N-[(3,6-dimethylpyridin-2-yl)methyl]-6-methyl-5-(1,3-oxazol-2-yl)pyrazine-2-carboxamide] |
| 0.672 | Cc1nc(C(=O)NCc2cc(C(F)(F)F)ccn2)c(N)nc1-c1ncco1 [Ex-42, 3-amino-6-methyl-5-(1,3-oxazol-2-yl)-N-{[4-(trifluoromethyl)pyridin-2-yl]methyl}pyrazine-2-carboxamide] |
| 0.116 | COc1cccnc1CNC(=O)c1nc(C)c(-c2ncco2)nc1N [Ex-43, 3-amino-N-[(3-methoxypyridin-2-yl)methyl]-6-methyl-5-(1,3-oxazol-2-yl)pyrazine-2-carboxamide] |
| 0.533 | Cc1nc(C(=O)NCc2nccn2CC(F)F)c(N)nc1-c1ncco1 [Ex-44, 3-amino-N-{[1-(2,2-difluoroethyl)-1H-imidazol-2-yl]methyl}-6-methyl-5-(1,3-oxazol-2-yl)pyrazine-2-carboxamide] |
| 0.735 | Cc1nc(C(=O)NCc2cc(Cl)ccn2)c(N)nc1-c1ncco1 [Ex-45, 3-amino-N-[(4-chloropyridin-2-yl)methyl]-6-methyl-5-(1,3-oxazol-2-yl)pyrazine-2-carboxamide] |
| 5.59 | Cc1nc(C(=O)NCc2ccncc2Cl)c(N)nc1-c1ncco1 [Ex-46, 3-amino-N-[(3-chloropyridin-4-yl)methyl]-6-methyl-5-(1,3-oxazol-2-yl)pyrazine-2-carboxamide] |
| 1.8 | Cc1nc(C(=O)NCc2ncc(F)cc2Cl)c(N)nc1-c1ncco1 [Ex-47, 3-amino-N-[(3-chloro-5-fluoropyridin-2-yl)methyl]-6-methyl-5-(1,3-oxazol-2-yl)pyrazine-2-carboxamide] |
| 1.01 | Cc1ccnnc1CNC(=O)c1nc(C)c(-c2ncco2)nc1N [Ex-48, 3-amino-6-methyl-N-[(4-methylpyridazin-3-yl)methyl]-5-(1,3-oxazol-2-yl)pyrazine-2-carboxamide] |
| 1.26 | Cc1nc(C(=O)NCc2ccc(Cl)cn2)c(N)nc1-c1ncco1 [Ex-49, 3-amino-N-[(5-chloropyridin-2-yl)methyl]-6-methyl-5-(1,3-oxazol-2-yl)pyrazine-2-carboxamide] |
| 1.25 | Cc1nc(C(=O)NCc2cccn(C)c2=O)c(N)nc1-c1ncco1 [Ex-50, 3-amino-6-methyl-N-[(1-methyl-2-oxo-1,2-dihydropyridin-3-yl)methyl]-5-(1,3-oxazol-2-yl)pyrazine-2-carboxamide] |
